From patent EP1037886B1, “TRIAZINE ANGIOGENESIS INHIBITORS” (Abbott Laboratories, priority 1997, dated 1999) come the findings set out here.

The test system of the first test is Human Microvascular Endothelial Cells (HMVEC). Nature of the test: Endothelial cell migration assay (bFGF induced, modified Boyden chamber). The class given is cell-based. The following applies: 600 nM test substance, 4 hours at 37 °C, percent inhibition of migration compared to a positive control. As to the method:
The endothelial cell migration assay was performed essentially as described by Polverini, P.J. et al., Methods Enzymol, 198: 440-450 (1991). Briefly, Human Microvascular Endothelial Cells (HMVEC) were starved overnight in DMEM (Dulbecco's Modified Eagle Medium) containing 0.1% bovine serum albumin (BSA). Cells were then harvested with trypsin and resuspended in DMEM with 0.1% BSA at a concentration of 1.5 x 10^6 cells/mL. Cells were added to the bottom of a 48-well modified Boyden chamber (Nucleopore Corporation, Cabin John, MD). The chamber was assembled and inverted, and cells were allowed to attach for 2 hours at 37 °C to polycarbonate chemotaxis membranes (5 µm pore size) that had been soaked in 0.1% gelatin overnight and dried. The chamber was then reinverted and basic fibroblast growth factor (bFGF) and test substances were added to the wells of the upper chamber (to a total volume of 50 µL); the apparatus was then incubated for 4 hours at 37 °C. Membranes were recovered, fixed and stained (DiffQuick, Fisher Scientific, Pittsburgh, PA) and the number of cells that had migrated to the upper chamber per 10 high power fields were counted. Background migration to DMEM + 0.1% BSA was subtracted and the data reported as the number of cells migrated per 10 high power fields (400X) or when results from multiple experiments were combined, as the percent inhibition of migration compared to a positive control.
Regarding `Nc1nc(N)nc(C23CC4CC(CC(C4)C2)C3)n1` [Example 52, 6-(tricyclo[3.3.1.1^3.7]decan-1-yl)-1,3,5-triazine-2,4-diamine], the “% inhibition at (nM)” value is recorded as 100 (600) %.

Still in this test, the particulars now being: Homo sapiens, 200 nM test substance, 4 hours at 37 °C, percent inhibition of migration compared to a positive control.
What is called inhibition is the relative decrease from the control value, in per cent. The low end stands for a response near the control, the high end for a response far below the control. `Nc1nc(N)nc(C2CC3CCC2C3)n1` (stereo not drawn) [Example 65, 6-(bicyclo[2.2.1]hept-2-yl)-1,3,5-triazine-2,4-diamine] returned an inhibition at 0.2 µM of 32%.

Still in this test, the particulars now being: Homo sapiens, 500 nM test substance, 4 hours at 37 °C, percent inhibition of migration compared to a positive control.
Turning to `CNc1nc(NC)nc(-c2ccc(-c3ccccc3)cc2)n1` [Example 63, 6-[1,1'-biphenyl]-4-yl-N,N'-dimethyl-1,3,5-triazine-2,4-diamine], at 0.5 µM the inhibition was 79%.

`Cc1ccc(-c2nc(N)nc(N)n2)cn1` [Example 68, 6-(6-methyl-3-pyridinyl)-1,3,5-triazine-2,4-diamine] returned an inhibition at 0.5 µM of 73%.

Take `Nc1nc(N)nc(-c2ccc(Cl)nc2)n1` [Example 69, 6-(6-chloro-3-pyridinyl)-1,3,5-triazine-2,4-diamine]: 0.5 µM produced 39% inhibition.

Take `Nc1nc(N)nc(C2CCN(C(=O)c3ccccc3)CC2)n1` [Example 74, 6-(1-benzoyl-4-piperidinyl)-1,3,5-triazine-2,4-diamine]: at 0.5 µM the inhibition was 82%.

Compound `Nc1nc(N)nc(C2CCN(Cc3ccccc3)CC2)n1` [Example 75, 6-[1-(phenylmethyl)-4-piperidinyl]-1,3,5-triazine-2,4-diamine] had an inhibition at 0.5 µM of 16%.

On to `CC(=O)Nc1nc(NC(C)=O)nc(-c2ccc(S(=O)(=O)c3ccccc3)cc2)n1` [Example 76, N,N'-diacetyl-6-[4-(phenylsulfonyl)phenyl]-1,3,5-triazine-2,4-diamine], for which the inhibition at 0.5 µM came to 33%.

Compound `CC(=O)Nc1nc(N)nc(-c2ccc(S(=O)(=O)c3ccccc3)cc2)n1` [Example 77, N-acetyl-6-[4-(phenylsulfonyl)phenyl]-1,3,5-triazine-2,4-diamine] came in with an inhibition at 0.5 µM of 50%.

The test is the same for the next values; noted with them: Homo sapiens, 600 nM test substance, 4 hours at 37 °C, percent inhibition of migration compared to a positive control.
In turn, `Nc1nc(N)nc(C2CN(C(c3ccccc3)c3ccccc3)C2)n1` [Example 1, 6-[1-(diphenylmethyl)-3-azetidinyl]-1,3,5-triazine-2,4-diamine] registered an inhibition at 0.6 µM of 20%.

The compound `Nc1nc(N)nc([C@H]2CC[C@H](c3ccccc3)CC2)n1` [Example 3, trans-6-(4-phenylcyclohexyl)-1,3,5-triazine-2,4-diamine] had an inhibition at 0.6 µM of 100%.

As for `Nc1nc(N)nc(-c2cccc(-n3cccc3)c2)n1` [Example 4, 6-[3-(1H-pyrrol-1-yl)phenyl]-1,3,5-triazine-2,4-diamine], the inhibition at 0.6 µM was determined as 62%.

As to `Nc1nc(N)nc(-c2ccccc2-c2ccccc2)n1` [Example 6, 6-[1,1'-biphenyl]-2-yl-1,3,5-triazine-2,4-diamine], testing at 0.6 µM gave an inhibition of 95%.

Take `Nc1nc(N)nc(-c2ccc(-c3ccc([N+](=O)[O-])cc3)cc2)n1` [Example 7, 6-(4'-nitro[1,1'-biphenyl]-4-yl)-1,3,5-triazine-2,4-diamine]: the inhibition at 0.6 µM is 100%.

For the compound `CCCCC[C@H]1CC[C@H](c2ccc(-c3nc(N)nc(N)n3)cc2)CC1` [Example 8, trans-6-[4-(4-pentylcyclohexyl)phenyl]-1,3,5-triazine-2,4-diamine], the inhibition at 0.6 µM was determined as 30%.

`Nc1nc(N)nc(-c2ccc(Oc3ccccc3)cc2)n1` [Example 9, 6-(4-phenoxyphenyl)-1,3,5-triazine-2,4-diamine] yielded an inhibition at 0.6 µM of 29%.

`Nc1nc(N)nc(-c2ccc(NC(=O)NC3CCCCC3)cc2)n1` [Example 10, N-cyclohexyl-N'-[4-(4,6-diamino-1,3,5-triazin-2-yl)phenyl]urea] showed an inhibition at 0.6 µM of 29%.

In turn, `Nc1nc(N)nc(-c2ccc(NC(=O)Nc3ccccc3)cc2)n1` [Example 12, N-[4-(4,6-diamino-1,3,5-triazin-2-yl)phenyl]-N'-phenyl urea] registered an inhibition at 0.6 µM of 36%.

Compound `Nc1nc(N)nc(N2CCC3(CC2)OCCO3)n1` [Example 13, 6-(1,4-dioxa-8-azaspiro[4,5]dec-8-yl)-1,3,5-triazine-2,4-diamine] displayed an inhibition at 0.6 µM of 53%.

With `Nc1nc(N)nc(-c2ccc3ccccc3n2)n1` [Example 47, 6-(2-quinolinyl)-1,3,5-triazine-2,4-diamine], at 0.6 µM the inhibition was 65%.

As to `Nc1nc(N)nc(-c2cnc3ccccc3c2)n1` [Example 48, 6-(3-quinolinyl)-1,3,5-triazine-2,4-diamine], the inhibition at 0.6 µM worked out at 55%.

In the case of `Nc1nc(N)nc(Cc2cc3ccccc3s2)n1` [Example 49, 6-(benzo[b]thien-2-ylmethyl)-1,3,5-triazine-2,4-diamine], 0.6 µM produced 14% inhibition.

In the case of `CC1(C)C=Cc2cc(-c3nc(N)nc(N)n3)ccc2O1` [Example 50, 6-(2,2-dimethyl-2H-1-benzopyran-6-yl)-1,3,5-triazine-2,4-diamine], the inhibition at 0.6 µM is 100%.

For `Nc1nc(N)nc(C2COc3ccccc3O2)n1` (stereo not drawn) [Example 51, 6-(2,3-dihydro-1,4-benzodioxin-2-yl)-1,3,5-triazine-2,4-diamine], the inhibition at 0.6 µM is 100%.

In turn, `Nc1nc(N)nc(-c2nccc3ccccc23)n1` [Example 53, 6-(1-isoquinolinyl)-1,3,5-triazine-2,4-diamine] returned an inhibition at 0.6 µM of 85%.

The compound `Nc1nc(N)nc(-c2ccc3c(c2)OCCO3)n1` [Example 55, 6-(2,3-dihydro-1,4-benzodioxin-6-yl)-1,3,5-triazine-2,4-diamine] came in with an inhibition at 0.6 µM of 84%.

Turning to `Nc1nc(N)nc(C23CCN(CC2)CC3)n1` [Example 56, 6-(1-azabicyclo[2.2.2]octan-4-yl)-1,3,5-triazine-2,4-diamine], the inhibition at 0.6 µM turned out to be 30%.

The compound `Nc1nc(N)nc(-c2ccc(S(=O)(=O)c3ccccc3)cc2)n1` [Example 58, 6-[4-(phenylsulfonyl)phenyl]-1,3,5-triazine-2,4-diamine] had an inhibition at 0.6 µM of 100%.

For the compound `Nc1nc(N)nc(-c2cnccn2)n1` [Example 60, 6-pyrazinyl-1,3,5-triazine-2,4-diamine], testing at 0.6 µM gave an inhibition of 100%.

As for `Nc1nc(N)nc(-c2cc(Cl)ccc2Cl)n1` [Irsogladine, reference compound], 0.6 µM produced 53% inhibition.
